# Read-outs that look alike come from different tables or passages of the source.
# Tests used:
# [1] = tested on: Escherichia coli; assay: Germicidal suspension assay, E. coli; assay type: cell-based; settings: for % survival at 1 min: 37° C.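 For all read-outs here: surviving cells were scored as colonies on nutrient agar after 24 h at 37° C, survival given as percent of untreated controls.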
# Method: E. coli cells from an overnight Trypticase soy nutrient agar (TSA) were resuspended to a density measured as an absorbance of 1.0 at 600 nm in sterile ddH2 O. The reaction of the cells with each of the bactericidal test formulations analyzed was started by addition of 30 μl of cells to 970 μl of test formulation. The reaction mixture was incubated at 37° C for at least 1 minute and then centrifuged in a microfuge for 1 minute. The cell pellet was washed by resuspension in 1 ml of neutralization buffer. (The neutralization buffer: 50 mM Tris-HCl, pH 7.0, 5 mM MgSO4, 20 mM CaCl2, 0.1 M NaCl and 0.1% gelatin was prepared by first making Tris buffer and adjusting the pH. The salts and gelatin were then added and the solution stirred with heat until the solution was clear. The solution was then autoclaved for 20 min. The neutralization buffer was used without dilution.) The cells were centrifuged in a microfuge for 1 minute and resuspended in 1 ml of neutralization buffer. The viable count was determined by spreading 100 μl of bacterial suspension and serial dilutions thereof in neutralization buffer on nutrient agar and scoring surviving colonies after 24 h at 37° C. Percent survival relative to untreated controls was calculated from the scored values.
# [2] = tested on: E. coli strain ATCC8739; assay: Nisin-citrate agar growth inhibition assay; assay type: cell-based, Escherichia coli
# Method: The nisin-citrate agar assay is performed as follows. E. coli is resuspended to an optical density of 1.0 at A600. A 100 μl sample of the bacterial suspension is spread uniformly on Trypticase Soy nutrient agar (TSA) supplemented with various concentrations of citrate (e.g. 0.1%, 0.3%, 1.0%, 3.0%) and incubated for 1 hour at 37° C. A nisin stock solution and serial dilutions thereof in 0.1% bovine serum albumin (BSA), are prepared and 5 μl are taken from each and deposited onto the growing bacterial lawn. The TSA plates are then incubated for 24 hours at 37° C. After 24 hours at 37° C., E. coli grown on TSA supplemented with citrate form a confluent lawn. […] The effectiveness of nisin against the gram negative bacteria can be assessed from determining the minimum amount of nisin required to produce a clear zone of growth inhibition. As the concentration of citrate in the nutrient agar is increased, less nisin is required to inhibit the growth of E. coli, as is illustrated by the data shown in Table 6.
# [3] = tested on: Helicobacter pylori
substance,measurement,setting,value
nisin,% survival at 1 min,"[1]; 0.1% w/v acetate pH 3.5, nisin 100 μg/ml and/or EDTA 1.0 mM where present, initial 2 × 10^7 cfu/ml",9.6%
same,% survival at 1 min,"[1]; 0.1% w/v lactate pH 3.5, nisin 100 μg/ml and/or EDTA 1.0 mM where present, initial 5 × 10^7 cfu/ml",4.4%
same,% survival at 1 min,"[1]; 0.1% w/v succinate pH 3.5, nisin 100 μg/ml and/or EDTA 1.0 mM where present, initial 3.4 × 10^6 cfu/ml",18.3%
same,% survival at 1 min,"[1]; 0.3% w/v acetate pH 3.5, nisin 100 μg/ml and/or EDTA 1.0 mM where present, initial 2 × 10^7 cfu/ml",70%
same,% survival at 1 min,"[1]; 0.3% w/v lactate pH 3.5, nisin 100 μg/ml and/or EDTA 1.0 mM where present, initial 5 × 10^7 cfu/ml",0.24%
same,% survival at 1 min,"[1]; 0.3% w/v succinate pH 3.5, nisin 100 μg/ml and/or EDTA 1.0 mM where present, initial 3.4 × 10^6 cfu/ml",66.6%
same,% survival at 1 min,"[1]; 1.0% w/v acetate pH 3.5, nisin 100 μg/ml and/or EDTA 1.0 mM where present, initial 2 × 10^7 cfu/ml",100%
same,% survival at 1 min,"[1]; 1.0% w/v lactate pH 3.5, nisin 100 μg/ml and/or EDTA 1.0 mM where present, initial 5 × 10^7 cfu/ml",17.8%
same,% survival at 1 min,"[1]; 1.0% w/v succinate pH 3.5, nisin 100 μg/ml and/or EDTA 1.0 mM where present, initial 3.4 × 10^6 cfu/ml",83.4%
same,% survival at 1 min,"[1]; 3.0% w/v acetate pH 3.5, nisin 100 μg/ml and/or EDTA 1.0 mM where present, initial 2 × 10^7 cfu/ml",100%
same,% survival at 1 min,"[1]; 3.0% w/v lactate pH 3.5, nisin 100 μg/ml and/or EDTA 1.0 mM where present, initial 5 × 10^7 cfu/ml",26.7%
same,% survival at 1 min,"[1]; 3.0% w/v succinate pH 3.5, nisin 100 μg/ml and/or EDTA 1.0 mM where present, initial 3.4 × 10^6 cfu/ml",28.4%
same,survival of E. coli on exposure to the agent by itself,[1]; agent by itself,unaffected
same,% survival at 1 min,"[1]; pH 2.0, 20 mM Na acetate buffer, nisin 100 μg/ml and/or EDTA 1.0 mM, initial 4 × 10^7 cfu/ml",0.28%
same,% survival at 1 min,"[1]; pH 2.5, 20 mM Na acetate buffer, nisin 100 μg/ml and/or EDTA 1.0 mM, initial 4 × 10^7 cfu/ml",3.37%
same,% survival at 1 min,"[1]; pH 3.0, 20 mM Na acetate buffer, nisin 100 μg/ml and/or EDTA 1.0 mM, initial 4 × 10^7 cfu/ml",4.43%
same,% survival at 1 min,"[1]; pH 3.5, 20 mM Na acetate buffer, nisin 100 μg/ml and/or EDTA 1.0 mM, initial 4 × 10^7 cfu/ml",100%
same,% survival at 1 min,"[1]; pH 4.0, 20 mM Na acetate buffer, nisin 100 μg/ml and/or EDTA 1.0 mM, initial 4 × 10^7 cfu/ml",100%
same,Nisin NIC (nominal inhibitory concentration of nisin minimally required to prevent growth),[2]; Trypticase Soy Agar supplemented with 0.1% citrate,370 µg/mL
same,Nisin NIC (nominal inhibitory concentration of nisin minimally required to prevent growth),[2]; Trypticase Soy Agar supplemented with 0.3% citrate,123 µg/mL
same,Nisin NIC (nominal inhibitory concentration of nisin minimally required to prevent growth),[2]; Trypticase Soy Agar supplemented with 1.0% citrate,13.7 µg/mL
same,Nisin NIC (nominal inhibitory concentration of nisin minimally required to prevent growth),[2]; Trypticase Soy Agar supplemented with 3.0% citrate,0.06 µg/mL
same,Nisin NIC (nominal inhibitory concentration of nisin minimally required to prevent growth),"[2]; Trypticase Soy Agar, 0% citrate","3,333 μg/ml"
same,% survival at 5 min,[3]; pH 7,5.88
same,% survival at 5 min,"[3]; strain ATCC43504, pH 5.0, citrate 0, nisin 100 μg/ml, second of two experiments (initial 3.26 × 10^5 cfu/ml)",0.043%
same,% survival at 5 min,"[3]; strain ATCC43504, pH 7.0, citrate 0, nisin 100 μg/ml, initial 9.62 × 10^4 cfu/ml",2.08%
same,% survival at 5 min,"[3]; strain ATCC43579, citrate 0, nisin 100 μg/ml, pH 5.0, average of 5 experiments",0.30%
same,% survival at 5 min,"[3]; strain ATCC43579, pH 5.0, citrate 0, nisin 100 μg/ml, 37° C., initial 1.04 × 10^4 cfu/ml",9.62%
same,% survival at 5 min,"[3]; strain ATCC43579, pH 5.0, nisin 10 μg/ml, citrate 0.1% where present, 37° C.",1.31%
same,% survival at 5 min,"[3]; strain ATCC43579, pH 5.0, nisin 30 μg/ml, citrate 0.1% where present, 37° C.",0.39%
same,% survival at 5 min,"[3]; strain ATCC43579, pH 5.0, nisin 100 μg/ml, citrate 0.1% where present, 37° C.",0.085%
same,% survival at 5 min,"[3]; strain ATCC43579, pH 5.0, nisin 300 μg/ml, citrate 0.1% where present, 37° C.",0.0056%
same,% survival at 5 min,"[3]; strain ATCC43579, pH 7.0, citrate 0, nisin 100 μg/ml, 37° C.",0.78%
